Assay results: paper PMC2673432 (Nucleic Acids Research, 2009)

Target: human L3MBTL2 4-MBT-repeat domain (4MBT, residues 170–625) (Homo sapiens, UniProt Q969R5)
Experiment: Isothermal titration calorimetry
Type: binding
Conditions: ITC, 25°C, pH 7.5, 200 mM NaCl; values in Supplementary Figure 3

human L3MBTL2 4-MBT-repeat domain (4MBT, residues 170–625), sequence (Q969R5 170-625): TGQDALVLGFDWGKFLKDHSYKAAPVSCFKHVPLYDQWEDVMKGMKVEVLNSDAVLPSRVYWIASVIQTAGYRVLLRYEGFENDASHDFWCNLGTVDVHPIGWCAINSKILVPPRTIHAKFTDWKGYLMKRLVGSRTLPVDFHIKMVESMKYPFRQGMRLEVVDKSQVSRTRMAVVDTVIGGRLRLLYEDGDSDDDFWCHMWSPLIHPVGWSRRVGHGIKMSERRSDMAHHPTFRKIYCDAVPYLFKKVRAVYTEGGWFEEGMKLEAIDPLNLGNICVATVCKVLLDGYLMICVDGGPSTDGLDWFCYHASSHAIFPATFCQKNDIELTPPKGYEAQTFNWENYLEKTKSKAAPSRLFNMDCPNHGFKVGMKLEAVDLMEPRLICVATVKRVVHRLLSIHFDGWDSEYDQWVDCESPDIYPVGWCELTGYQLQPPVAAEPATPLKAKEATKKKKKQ

CNCCCC[C@H](N)C(=O)O [free mono-methylated lysine, mono-methylated lysine]
Relative binding affinity (in words): binds mono- and di-methylated lysine centrally located in a peptide more tightly than free mono-methylated lysine
